SMILES strings stand for the structures. Where only a bound is given, the exact number is not on record here.

In US10538532B2, “Hepatitis B antiviral agents” (ENANTA PHARMACEUTICALS, INC., priority 2016, dated 2020) one finds EC50 data, which are given here for 43 compounds.

The first experiment concerns HBV. Kind of experiment: HepAD38 antiviral assay: reduction of viral product accumulation (virion DNA by qPCR, HBsAg or HBeAg by ELISA). It counts as cell-based, hepatitis B virus. The conditions noted are these: HepAD38 cells, five days after compound addition; concentration reducing viral product accumulation by 50% relative to no drug controls; read-out: HepAD38 EC50. As to the method: Methods: HepAD38 cells are maintained as previously reported (Ladner et al, Antimicrob. Agents Chemother. 1997, […], 1715). Briefly, cells are passaged upon attaining confluency in DMEM/F12 media in the presence of 10% FBS, Penn/Strep, 250 μg/mL G418, and 1 ug/ml tetracycline. Novel compounds are screened by first washing cells three times with PBS to remove tetracycline, and plating in 96 well plates at 35,000 cells/well. Compounds dissolved in DMSO are then diluted 1:200 into wells containing cells. Five days after compound addition, material is harvested for analysis. For an extended 8 day analysis, cells are plated and treated as described above, but media and compound are refreshed on d2 and d5 post initial treatment.
On harvest day, virion DNA is obtained by lysing with Sidestep Lysis and Stabilization Buffer and then quantified via quantitative real time PCR. Commercially available ELISA kits are used to quantitate the viral proteins HBsAg (Alpco) or HbeAg (US Biological) by following the manufacturer's recommended protocol after diluting samples to match the linear range of their respective assays. Irrespective of readout, compound concentrations that reduce viral product accumulation in the cell lysates or supernatants by 50% relative to no drug controls (EC50) are reported; EC50 ranges are as follows: A<0.1 μM; B 0.1-0.4 μM; C>0.4 μM.
(Real-time PCR tracks product formation cycle by cycle.)
For orientation: EC50 means the concentration that produces a half-maximal response. `O=C(Nc1cc(F)c(F)c(F)c1)c1ccc(Cl)c(S(=O)(=O)C2CC3O[C@H]3C2)c1` (stereo partly shown) [Example 87]: the EC50 fell in the range of 100 to 400 nM.

The experiment is the same for the next values; noted with them: Hepatitis B virus, HePAD38, 120 h, HepAD38 cells, five days after compound addition; concentration reducing viral product accumulation by 50% relative to no drug controls; read-out: HepAD38 EC50.
Consider `O=C(Nc1cc(F)c(F)c(F)c1)c1ccc(Cl)c([S+]([O-])[C@H]2C3C[C@@H]4C[C@H](C3)C[C@@H]2C4)c1` (stereo partly shown) [Example 175], for which the EC50 is > 400 nM.

As to `CN(C)c1ccc(C(=O)Nc2cc(F)c(F)c(F)c2)cc1S(=O)(=O)[C@H]1C2CC[C@H]1C[C@](O)(CO)C2` [Example 147], the EC50 is > 400 nM.

`COc1ccc(CO/N=C/[C@]2(O)CC3CC[C@@H](C2)[C@H]3S(=O)(=O)c2cc(C(=O)Nc3cc(F)c(F)c(F)c3)ccc2Cl)cc1` [Example 233]: the EC50 is < 100 nM.

On to `O=C(Nc1cc(F)c(F)c(F)c1)c1ccc(Cl)c(S(=O)(=O)C2CCCCC2)c1` [Example 12], for which the EC50 was in the range of 100 to 400 nM.

Consider `O=C(Nc1cc(F)c(F)c(F)c1)c1ccc(Cl)c(SCc2ccncc2)c1` [Example 38], for which the EC50 was > 400 nM.

In the case of `CCOC(=O)[C@@H](NC[C@]1(O)C2CCC1C[C@@H](S(=O)(=O)c1cc(C(=O)Nc3cc(F)c(F)c(F)c3)ccc1Cl)C2)C(C)C` [Example 340], the EC50 was > 400 nM.

In the case of `C[C@H](N)C(=O)OC[C@]1(O)CC2CC[C@@H](C1)[C@H]2S(=O)(=O)c1cc(C(=O)Nc2cc(F)c(F)c(F)c2)ccc1Cl` [Example 248], the EC50 was < 100 nM.

As to `O=C(Nc1cccnc1)N[C@@H]1C2CC[C@H]1C[C@H](S(=O)(=O)c1cc(C(=O)Nc3cc(F)c(F)c(F)c3)ccc1Cl)C2` [Example 198], the EC50 is < 100 nM.

Take `O=C(Nc1ccc(F)c(F)c1)c1ccc(Cl)c(S(=O)(=O)[C@H]2C3CC[C@H]2C[C@](O)(CO)C3)c1` [Example 127]: the EC50 is < 100 nM.

Regarding `C#C[C@@]1(O)CC2CC[C@@H](C1)[C@H]2S(=O)(=O)c1cc(C(=O)Nc2cc(F)c(F)c(F)c2)ccc1Cl` [Example 161], the EC50 was < 100 nM.

On to `O=C(Nc1cc(F)c(F)c(F)c1)c1ccc(Cl)c(S(=O)(=O)[C@H]2C3CC[C@H]2C[C@](O)(C(O)c2ccccc2)C3)c1` (stereo partly shown) [Example 149], for which the EC50 is < 100 nM.

In the case of `O=C(Nc1cc(F)c(F)c(F)c1)c1ccc(Cl)c(S(=O)(=O)[C@H]2CC3CCC(C2)[C@H]3O)c1` [Example 183], the EC50 is 100 to 400 nM.

On to `O=C(Nc1cc(F)c(F)c(F)c1)c1ccc(Cl)c(S(=O)(=O)C2C[C@@H](O)[C@@H](O)C2)c1` (stereo partly shown) [Example 85], for which the EC50 lay within 100 to 400 nM.

For the compound `O=C(Nc1cc(F)c(F)c(F)c1)c1ccc(Cl)c(S(=O)(=O)[C@H]2C3CC[C@H]2C[C@](O)(C#Cc2ccncc2)C3)c1` [Example 169], the EC50 was < 100 nM.

As for `COC(=O)NC[C@@H]1CC2CC[C@@H](C1)[C@H]2S(=O)(=O)c1cc(C(=O)Nc2cc(F)c(F)c(F)c2)ccc1Cl` [Example 334], the EC50 was < 100 nM.

Take `O=C(Nc1cc(F)c(F)c(F)c1)c1ccc(Cl)c(S(=O)(=O)[C@H]2C3CC[C@H]2C[C@@](O)(C#Cc2ccccn2)C3)c1` [Example 172]: the EC50 was in the range of 100 to 400 nM.

For the compound `O=C1OC[C@@]2(CC3CC[C@@H](C2)[C@H]3S(=O)(=O)c2cc(C(=O)Nc3cc(F)c(F)c(F)c3)ccc2Cl)O1` [Example 155], the EC50 is < 100 nM.

Consider `O=C1CCC(S(=O)(=O)c2cc(C(=O)Nc3cc(F)c(F)c(F)c3)ccc2Cl)C1` (stereo not shown) [Example 57], for which the EC50 was > 400 nM.

Regarding `O=C(Nc1cc(F)c(F)c(F)c1)c1ccc(Cl)c(S(=O)(=O)[C@H]2C3CC[C@H]2C[C@](O)(COCCN2CCOCC2)C3)c1` [Example 325], the EC50 is < 100 nM.

As to `O=C(Nc1cc(F)c(F)c(F)c1)c1ccc(Cl)c(S(=O)(=O)C[C@@H]2C3CC[C@H]2C[C@@H](O)C3)c1` [Example 181], the EC50 is < 100 nM.

Consider `O=C(Nc1cc(F)c(F)c(F)c1)c1ccc(Cl)c(S(=O)(=O)C2CCOCC2)c1` [Example 69], for which the EC50 lay in the range of 100 to 400 nM.

Turning to `COC(=O)C1CON(Cc2ccccc2)C1C1=C[C@@H]2CCC(C1)[C@@H]2S(=O)(=O)c1cc(C(=O)Nc2cc(F)c(F)c(F)c2)ccc1Cl` (stereo partly shown) [Example 214], the EC50 was 100 to 400 nM.

Regarding `O=C(Nc1cc(F)c(F)c(F)c1)c1ccc(Cl)c(SCc2ccccn2)c1` [Example 32], the EC50 is > 400 nM.

For the compound `O=C(Nc1cc(F)c(F)c(F)c1)c1ccc(Cl)c(S(=O)(=O)C[C@H]2CC3CC2[C@H](O)[C@@H]3O)c1` (stereo partly shown) [Example 241], the concentration for a half-maximal effect (EC50) was < 100 nM.

Turning to `O=C(Nc1cc(F)c(F)c(F)c1)c1ccc(Cl)c(S(=O)(=O)[C@H]2C3CC[C@H]2C[C@](O)(COCc2cccnc2)C3)c1` [Example 187], the EC50 is < 100 nM.

As to `O=C(Nc1cc(F)c(F)c(F)c1)c1ccc(Cl)c(S(=O)(=O)[C@H]2C3CC[C@H]2C[C@](O)(/C=N/OCc2ccccc2)C3)c1` [Example 205], the EC50 is < 100 nM.

With `O=C(Nc1cc(F)c(F)c(F)c1)c1ccc(Cl)c(S(=O)(=O)C2CC=CCC2)c1` (stereo not shown) [Example 20], the EC50 was 100 to 400 nM.

For the compound `O=C(Nc1cc(F)c(F)c(F)c1)c1ccc(Cl)c(S[C@H]2CC[C@H](O)CC2)c1` [Example 10], the EC50 is 100 to 400 nM.

As to `CC(O)CNC[C@]1(O)C2CCC1C[C@@H](S(=O)(=O)c1cc(C(=O)Nc3cc(F)c(F)c(F)c3)ccc1Cl)C2` (stereo partly shown) [Example 342], the EC50 is < 100 nM.

In the case of `O=C(Nc1ccc(F)c(Cl)c1)c1ccc(Cl)c(S(=O)(=O)[C@H]2CC[C@H](O)CC2)c1` [Example 52], the EC50 was in the range of 100 to 400 nM.

`COC(=O)C1CON(Cc2ccccc2)C1[C@]1(O)CC2CC[C@@H](C1)[C@H]2S(=O)(=O)c1cc(C(=O)Nc2cc(F)c(F)c(F)c2)ccc1Cl` (stereo partly shown) [Example 213]: the EC50 was > 400 nM.

As for `O=C(Nc1ccc(F)c(F)c1)c1ccc(Cl)c(S(=O)(=O)[C@H]2CC3CCC(C2)[C@H]3O)c1` [Example 354], the 50% effective concentration (EC50) fell in the range of 100 to 400 nM.

Regarding `O=C(Nc1cc(F)c(F)c(F)c1)c1ccc(Cl)c(S(=O)(=O)[C@H]2CC3CCC(C2)[C@]3(O)C(O)CO)c1` (stereo partly shown) [Example 352], the EC50 was < 100 nM.

In the case of `O=C(Nc1cc(F)c(F)c(F)c1)c1ccc(Cl)c(S(=O)(=O)C[C@H]2CC[C@@H](O)CC2)c1` [Example 112], the EC50 was < 100 nM.

For `O=C1CC(S(=O)(=O)c2cc(C(=O)Nc3cc(F)c(F)c(F)c3)ccc2Cl)C1` [Example 33], the EC50 is > 400 nM.

With `O=C(Nc1cc(F)c(F)c(F)c1)c1ccc(Cl)c(S(=O)(=O)CC2CCOCC2)c1` [Example 113], the EC50 was 100 to 400 nM.

For the compound `Cc1ccc(CO/N=C/[C@]2(O)CC3CC[C@@H](C2)[C@H]3S(=O)(=O)c2cc(C(=O)Nc3cc(F)c(F)c(F)c3)ccc2Cl)cc1` [Example 230], the EC50 fell in the range of 100 to 400 nM.

Consider `O=C(Nc1cc(F)c(F)c(F)c1)c1ccc(Cl)c(S(=O)(=O)[C@H]2C3CC[C@H]2C[C@@](O)(C#Cc2ccncc2)C3)c1` [Example 170], for which the EC50 was > 400 nM.

In the case of `O=C(Nc1cc(F)c(F)c(F)c1)c1ccc(Cl)c(S(=O)(=O)Cc2cccc[n+]2[O-])c1` [Example 37], the EC50 is > 400 nM.

For `O=C(Nc1cc(F)c(F)c(F)c1)c1ccc(Cl)c(S[C@H]2CC3CCC(C2)[C@H]3O)c1` [Example 191], the EC50 is > 400 nM.

With `O=C(Nc1cc(F)c(F)c(F)c1)c1ccc(Cl)c(S(=O)(=O)C2CCNCC2)c1` [Example 74], the EC50 is > 400 nM.

For the compound `COC(=O)C1CON(Cc2ccccc2)[C@@]12CC1CC[C@@H](C2)[C@H]1S(=O)(=O)c1cc(C(=O)Nc2cc(F)c(F)c(F)c2)ccc1Cl` (stereo partly shown) [Example 211], the EC50 was > 400 nM.
